“And” between values parts separate entries of the source, which are not always exact repeats. Equal values may be shown once. Read-outs that look alike come from different tables or passages of the source.
Test system: mammary cancer cells MCF-7
Assay: Proliferation measurement of mammary cancer cells MCF-7 (resazurin, 72 hrs exposure)
Format: cell-based
Settings: for IC50: Homo sapiens; for Inhibition percentage: screening, single values and Averages
Description: Detailed Procedure of the Proliferation Measurement of Mammary Cancer Cells MCF-7
1st Part Day 1: Sowing the Cells
1. Preparation of the Medium:
• Preparation of the volume to be put into the plates:
In a 50 mL Falcon, prepare 30 mL of complete RPMI with 10% FCS and 1% Glutamine: 27 mL of RPMI: 3 mL of FCS and 300 μL of Glutamine.
2. Preparation of the Cell Suspension:
• Suck up the medium contained in the flask with the vacuum pump • Rinse with 3 mL of PBS and suck up with the vacuum pump • Add 1 mL of trypsin and let it act for 3 mins in the oven at 37° C. in order to detach the cells. • When the cells are detached, add 2 mL of complete medium prepared previously for inactivating the trypsin. • Mix well the suspension by suction-discharge and transfer into a well-defined Falcon 15. • Count the cells in a Malassez cell: carry out dilution to one 20th for counting them with Trypan blue.
• Sow the plates with 200 μL of cell suspension according to the determined scheme • Put 200 μL of water in the peripheral wells • Leave for incubation for 24 hours.
2nd Part: Day 2, the Extract is Exposed
4. Preparation of the Medium:
A total of 45 mL of medium to be prepared in a Falcon 50 sterilized i.e. 40.5 mL of RPMI+4.5 mL of FCS+450 μL of glutamine
5. Preparation of the Extracts:
• prepare a 10 mg/mL solution: • Dissolve 8.1 mg of crude extract (noted as SF) according to Example 1, of the SF 5 fraction according to Example 2 or of the KP-18^E fraction (Guieranone B) in 810 μL of DMSO • Prepare the mother solution of extract (Ex) at 100 μg/mL i.e. 50 μL of (10 mg/ml) in 4,950 μL of RPMI • Produce the range of extracts (for 1 extract and only 1 range). • Remove the medium in the plates and add 200 μL per well of an extract range (one column per concentration). • Incubate the plates in the oven at 37° C. for 72 hrs.
6. Prepare Resazurin (Developer) and Read the Plate to
2 columns of cells+one column of resazurin alone=3 columns
200 μL/well×3 columns×6 lines=3,600 μL (total volume to be prepared: 5 mL) • Prepare 4.9 mL of medium+100 μL resazurin
Remove the medium and add 200 μL of (medium+resazurin) per well. • Incubate for 2 hours and read with fluorskan. 3rd Part: Measurement of Proliferation at 24 Hours (for t0), 72 Hrs for Extract • For the extract at 72 hrs:
200 μL/well×18 columns×6 lines (total volume to be prepared: 25 mL) • Prepare 24.5 mL of RPMI+500 μL of resazurin • Remove the medium and add 200 μL of (medium+resazurin) per well. • After 2 hours, readout with fluorskan.

[1] = MCF7, MCF-7 mammary cancer cell line, same conditions (Table 2), read-out: Average Cl50 in μM
[2] = MCF7, MCF-7 mammary cancer cell line, same conditions (Table 2), read-out: Average Cl50 in μg/mL
[3] = MCF7, mammary cancer line MCF-7, same conditions (Table 15, identical with Table 2), read-out: Average CI50 in μM
[4] = MCF7, mammary cancer line MCF-7, same conditions (Table 15, identical with Table 2), read-out: Average CI50 in μg/mL

Structure (SMILES) | IC50 (MCF7, 72 h, KP-18E, MCF-7, 72 hrs, average of the 6 tests, read-out: Average C150) [µg/mL] | IC50 (MCF7, 72 h, KP-18E, MCF-7, 72 hrs, each of the 6 tests (1-2, N1-N3), read-out: CI50 (the source's name)) [µg/mL] | IC50 [1] [µM] | IC50 [2] [µg/mL] | IC50 [3] [µM] | IC50 [4] [µg/mL] | Inhibition percentage (KP-18E 1.5 μg/mL, MCF-7, 72 hrs) | Inhibition percentage (KP-18E 1.5 μg/mL, MCF-7, 72 hrs, mean) [%] | Inhibition percentage (KP-18E 2 μg/mL, MCF-7, 72 hrs) | Inhibition percentage (KP-18E 2 μg/mL, MCF-7, 72 hrs, mean) [%] | Inhibition percentage (KP-18E 2.5 μg/mL, MCF-7, 72 hrs) | Inhibition percentage (KP-18E 2.5 μg/mL, MCF-7, 72 hrs, mean) [%] | Inhibition percentage (KP-18E 3 μg/mL, MCF-7, 72 hrs) | Inhibition percentage (KP-18E 3 μg/mL, MCF-7, 72 hrs, mean) [%] | Inhibition percentage (KP-18E 4 μg/mL, MCF-7, 72 hrs) | Inhibition percentage (KP-18E 4 μg/mL, MCF-7, 72 hrs, mean) [%] | Inhibition percentage (KP-18E 5 μg/mL, MCF-7, 72 hrs) [%] | CI50 (KP-18E, MCF-7, 72 hrs, each of the 6 tests (1-2, N1-N3)) | antiproliferative activity (in words) (line of mammary cancer cells MCF-7)
C/C=C/C(=O)C1=CC(OC)=C2C(=O)C(OC)=CC(OC)=C2C1=O [Guieranone B] | 2.25 | 2.05 | 7.09 | 2.24 ± 0.13 | 7.09 | 2.24 ± 0.13 | 49.86% and 36.10% and 48.15% and 50.66% and 53.59% and 53.16% | 48.59 | 68.59% and 62.54% and 43.35% and 59.58% and 61.13% and 48.79% | 57.33 | 69.73% and 57.84% and 59.61% and 65.92% and 65.73% and 68.02% | 64.48 | 94.22% and 77.40% and 86.16% and 83.19% and 84.81% and 92.10% | 86.31 | 100.00% and 99.38% | 99.90 | 100.00 | 2.7202 µg/mL and 2.1664 µg/mL and 2.5518 µg/mL and 2.067 µg/mL and 1.9176 µg/mL | high antiproliferative activity
O=c1[nH]cc(F)c(=O)[nH]1 [5-FU, 5-Fluorouracil, reference compound] |  |  | 4.04 ± 0.39 | 0.53 ± 0.05 | 4.04 ± 0.39 | 0.53 ± 0.05 |  |  |  |  |  |  |  |  |  |  |  |  | 

From patent publication US20140348958A1, “Anticancer Active Ingredient From Guiera Senegalensis” (UNIVERSITE D'AUVERGNE CLERMONT I, priority 2011, published 2014)
